From US10668134B2, “Dental pretreatment material and dental tissue regeneration kit” (National Center for Geriatrics and Gerontology, priority 2016, dated 2020)

What was measured:
Type in all cases: cell-based
[1] = tested on: Eleventh-passage human periodontal membrane cells; assay: Migratory capacity of senescent cells of human periodontal membrane (TAXIscan-FL, SDF1 gradient); settings: 48 hours, n=4, control 53.8 ± 4.6
Procedure: Eleventh-passage human periodontal membrane cells were plated in DMEM containing 10% FBS in collagen-coated 35 mm dishes (IWAKI) at a density of 2×10^4 cells/ml. After 20 hours, an ALK5 inhibitor (SB431542) was added to a final concentration of 10 ng/μl. Further, a CCR3 antagonist (SB328437) was added to a final concentration of 5 ng/μl. After 48 hours, the cells were detached, and Real-time horizontal chemotaxis analysis was performed using TAXIscan-FL (Effector Cell Institute, Tokyo) so as to measure the migratory capacity. Specifically, channels optimized (8 μm) for the size of cells are formed between a silicon plate having 6 μm pores and a glass plate, and 1 μl of treated periodontal membrane cells (10^5 cells/ml) was injected to one end portion of an associated one of the channels (n=4). Then, 1 μl of 10 ng/μl SDF1 was placed on the opposite side portion so as to form a certain constant concentration gradient. Based on the video images of migration, the number of migrating cells after 12 hours was measured.

[2] = tested on: Eleventh-passage human periodontal ligament cells; assay: Trophic factor expression in senescent cells of human periodontal membrane (real-time RT-PCR); settings: control = 1
Procedure: Eleventh-passage human periodontal ligament cells were plated in DMEM containing 10% FBS in collagen-coated 35 mm dishes (IWAKI) at a density of 2×10^4 cells/ml. After 20 hours, ALK5 inhibitor (SB431542) was added to final concentrations of 5 ng/μl and 10 ng/μl. Further, CCR3 antagonist (SB328437) was added to final concentrations of 5 ng/μl and 10 ng/μl. After 48 hours, mRNA was extracted, and real-time RT-PCR was performed on senescence markers, namely p16, p53, IL6, IL1b, IL8, and TNFα (Table 4).
Real-time RT-PCR was performed on trophic factors, namely, VEGF, BDNF, NGF, MCP1 (Table below) using mRNA similar to that described in 2 above.

[3] = tested on: Fifth-passage human periodontal membrane cells; assay: mRNA expression of CCL11, CCR3 and GDF11 in human periodontal membrane cells (real-time RT-PCR); settings: 5, 10 and 30 ng/μl added; after 32 hours
Procedure: Fifth-passage human periodontal membrane cells were plated in a DMEM containing 10% FBS in collagen-coated 35 mm dishes (IWAKI) at a density of 2×10^4 cells/ml. After 9 hours, an ALK5 inhibitor (SB431542) was added to final concentrations of 5 ng/μl, 10 ng/μl, and 30 ng/μl. Further, a CCR3 antagonist (SB328437) was added to final concentrations of 5 ng/μl, 10 ng/μl, and 30 ng/μl. After 32 hours, mRNA was extracted, and real-time RT-PCR was performed on CCL11, CCR3, and GDF11.

[4] = tested on: Fourth-passage human dental pulp cells; assay: Migration promotion of dental pulp cells by culture supernatant of senescent dental pulp stem cells (TAXIscan-FL); settings: 1 μl DPSC CM containing 1 μl of 20 mg/ml compound as attractant; n=4; non 5.0 ± 1.0
Procedure: (§1) Non-separated 22nd-passage human dental pulp stem cells were brought into a state of 50% confluence. The medium was replaced with a serum-free medium. After 24 hours, the culture conditioned medium was collected. The supernatant was concentrated approximately 40-fold using Amicon Ultra-15 Centrifugal Filter Unit with Ultracel-3 membrane (Millipore, Billerica, Mass.) with 3-kDa molecular cut. Proteinase inhibitors (Halt™ proteinase inhibitor cocktail EDTA-free, Thermo Scientific, Rockford, Ill., USA) was added. The mixture was dispended to be stored at −80° C. Protein content was measured using Bradford Ultra™ (Expedeon, Cambridge, UK).
Fourth-passage human dental pulp cells were plated in DMEM containing 10% FBS in 10 cm dishes (FALCON) at 2×10^4 cells/ml. After 48 hours, the cells were detached, and a real-time horizontal chemotaxis analysis was performed using TAXlscan-FL (Effector Cell Institute, Tokyo) to measure the migratory capacity. Specifically, channels optimized (8 μm) for the size of the cells were formed between a silicon plate having 6 μm pores and a glass plate, and 1 μl of treated dental pulp cells (10^5 cells/ml) was injected to one end portion of each of the channels (n=4). As a control, one of the channels received nothing at the opposite end portion. […] Based on the video images of migration, the number of migrating cells after 12 hours was measured.

[5] = tested on: HUVECs (Human Umbilical Vein Endothelial Cells); assay: Blood vessel-inducing capacity of culture supernatant of senescent dental pulp stem cells on HUVECs on matrigel; settings: after 5 hours, DPSC CM alone 5.9 ± 2.9 mm
Procedure: as §1
HUVECs (Human Umbilical Vein Endothelial Cells) (clone 7F3415) (Lonza) were cultured with EGM 2 containing 10% FBS (Lonza). Thereafter, the culture supernatant (5 μg/ml proteins) prepared in 1 above was added to DMEM, as a blood vessel-inducing medium, containing 2% FBS, 5 μg/ml heparin (Lonza), 5 μg/ml ascorbic acid (Lonza), and 5 μg/ml hydrocortisone (Lonza). Further, an ALK5 inhibitor (SB431542, 10 ng/μl) was added to a part of the resultant mixture, and a CCR3 antagonist (SB328437, 5 ng/μl) was added to another part of the resultant mixture. […] Quantitative measurement was conducted, using Suite V3 software (Leica), on the length of a formed cord or tubular lumen.

[6] = tested on: TGW cells (human neuroblastoma cell line); assay: Neurite outgrowth in TGW cells with culture conditioned medium of senescent dental pulp stem cells; settings: after 48 hours, DPSC CM alone 111.5 ± 14.1 μm
Procedure: as §1
The culture supernatant (5 μg/ml proteins) prepared in 1 above was added to TGW cells (human neuroblastoma cell line). Further, an ALK5 inhibitor (SB431542, 10 ng/μl) was added to a part of the resultant mixture, and a CCR3 antagonist (SB328437, 5 ng/μl) was added to another part of the resultant mixture. TGW cells to which only the culture supernatant was added was used as a negative control. […] Neurite outgrowth after 48 hours was observed and measured with an inverted microscope (Leica).

Compound | number of migrating cells after 12 hours, Average ± SD ([1]; final concentration 5 ng/μl) | BDNF trophic factor expression ([2]; 5 ng/μl) | MCP1 trophic factor expression ([2]; 5 ng/μl) | NGF trophic factor expression ([2]; 5 ng/μl) | VEGF trophic factor expression ([2]; 5 ng/μl) | BDNF trophic factor expression ([2]; 10 ng/μl) | MCP1 trophic factor expression ([2]; 10 ng/μl) | NGF trophic factor expression ([2]; 10 ng/μl) | VEGF trophic factor expression ([2]; 10 ng/μl) | mRNA expression of CCL11 [3] | mRNA expression of CCR3 [3] | number of migrating cells after 12 hours, Average ± SD [4] | Length of New Blood Vessel ([5]; DPSC CM + 5 ng/μl) | Neurite Outgrowth Length ([6]; DPSC CM + 5 ng/μl) | number of migrating cells after 12 hours, Average ± SD ([1]; final concentration 10 ng/μl) | increase of expression of GDF11 mRNA [3] | Length of New Blood Vessel ([5]; DPSC CM + 10 ng/μl) | Neurite Outgrowth Length ([6]; DPSC CM + 10 ng/μl)
COC(=O)[C@H](Cc1ccc([N+](=O)[O-])cc1)NC(=O)c1cccc2ccccc12 [CCR3 antagonist, SB328437] | 23.3 ± 10.7 | 0.33 | 2.35 | 0.50 | 0.92 | 0.43 | 0.54 | 0.58 | 0.70 | completely suppressed | completely suppressed | 23.7 ± 5.1 | 2.8 ± 0.3 mm | 518.7 ± 126.5 μm | – | – | – | –
NC(=O)c1ccc(-c2nc(-c3ccc4c(c3)OCO4)c(-c3ccccn3)[nH]2)cc1 [ALK5 inhibitor, SB431542] | – | 0.44 | 1.08 | 0.58 | 0.96 | 0.47 | 0.96 | 0.44 | 1.25 | completely suppressed | – | 12.7 ± 2.1 | – | – | 21.3 ± 10.9 | 5 times | 13.2 ± 2.6 mm | 2710.5 ± 1223.0 μm
